# According to PMC3093745 (ACS Medicinal Chemistry Letters, 2011):
# Tests used:
# [1] = biological target: HDAC1 (Homo sapiens, UniProt Q13547); experiment: HDAC1 in vitro homogeneous fluorogenic deacetylase assay; format: biochemical; details: read-out: IC50 HDAC1; SD in parentheses; duplicate; substrate MAZ1600 21 µM
# [2] = biological target: HDAC2 (Homo sapiens, UniProt Q92769); experiment: HDAC2 in vitro homogeneous fluorogenic deacetylase assay; format: biochemical; details: read-out: IC50 HDAC2; SD in parentheses; duplicate; substrate MAZ1600 22 µM
# [3] = biological target: T1, HDAC6 (Homo sapiens, UniProt Q9UBN7); experiment: HDAC6 in vitro homogeneous fluorogenic deacetylase assay; format: biochemical; details: read-out: IC50 HDAC6; SD in parentheses; duplicate; substrate MAZ1600 9 µM
# T1 sequence (Q9UBN7 1-1215): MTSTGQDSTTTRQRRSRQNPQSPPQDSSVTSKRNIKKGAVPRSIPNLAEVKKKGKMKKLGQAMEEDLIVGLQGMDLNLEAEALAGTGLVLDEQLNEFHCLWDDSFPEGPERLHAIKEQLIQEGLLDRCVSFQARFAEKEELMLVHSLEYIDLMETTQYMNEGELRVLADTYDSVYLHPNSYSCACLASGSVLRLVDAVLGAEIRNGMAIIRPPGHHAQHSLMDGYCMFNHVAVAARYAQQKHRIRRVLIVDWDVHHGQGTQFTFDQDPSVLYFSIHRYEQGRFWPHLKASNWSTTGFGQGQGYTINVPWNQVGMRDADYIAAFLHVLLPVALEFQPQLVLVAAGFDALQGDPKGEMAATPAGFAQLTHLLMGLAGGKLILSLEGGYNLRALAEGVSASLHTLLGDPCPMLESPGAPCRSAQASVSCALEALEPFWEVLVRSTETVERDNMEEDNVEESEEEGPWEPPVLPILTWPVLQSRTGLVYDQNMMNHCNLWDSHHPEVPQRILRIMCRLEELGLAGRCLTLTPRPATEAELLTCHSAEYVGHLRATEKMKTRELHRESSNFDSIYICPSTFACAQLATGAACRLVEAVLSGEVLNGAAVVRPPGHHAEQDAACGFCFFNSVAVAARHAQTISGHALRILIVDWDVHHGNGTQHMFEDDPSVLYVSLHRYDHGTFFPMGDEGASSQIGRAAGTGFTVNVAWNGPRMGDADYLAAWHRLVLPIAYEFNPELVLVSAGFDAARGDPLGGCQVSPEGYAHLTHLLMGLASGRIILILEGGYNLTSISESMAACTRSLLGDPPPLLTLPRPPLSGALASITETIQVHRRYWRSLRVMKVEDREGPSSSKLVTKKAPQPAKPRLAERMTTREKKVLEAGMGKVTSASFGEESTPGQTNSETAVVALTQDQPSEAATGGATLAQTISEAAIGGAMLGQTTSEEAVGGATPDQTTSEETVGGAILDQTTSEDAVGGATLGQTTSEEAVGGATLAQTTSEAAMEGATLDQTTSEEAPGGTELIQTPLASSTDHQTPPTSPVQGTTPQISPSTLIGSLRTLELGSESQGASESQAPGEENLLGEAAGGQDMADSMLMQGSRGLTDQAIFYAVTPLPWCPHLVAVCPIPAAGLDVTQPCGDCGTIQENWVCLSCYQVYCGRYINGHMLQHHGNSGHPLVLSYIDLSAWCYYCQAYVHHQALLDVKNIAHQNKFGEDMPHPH
# [4] = tested on: MCF7 cells; experiment: Propidium iodide staining, cell cycle and cell death in MCF7 cells; format: cell-based; details: 1 µM, 48 hours, PI staining
# [5] = biological target: HDAC3 (Homo sapiens, UniProt O15379); experiment: HDAC3 in vitro homogeneous fluorogenic deacetylase assay; format: biochemical; details: read-out: IC50 HDAC3; SD in parentheses; duplicate; substrate MAZ1600 9 µM
# HDAC3, sequence (O15379 whole entry): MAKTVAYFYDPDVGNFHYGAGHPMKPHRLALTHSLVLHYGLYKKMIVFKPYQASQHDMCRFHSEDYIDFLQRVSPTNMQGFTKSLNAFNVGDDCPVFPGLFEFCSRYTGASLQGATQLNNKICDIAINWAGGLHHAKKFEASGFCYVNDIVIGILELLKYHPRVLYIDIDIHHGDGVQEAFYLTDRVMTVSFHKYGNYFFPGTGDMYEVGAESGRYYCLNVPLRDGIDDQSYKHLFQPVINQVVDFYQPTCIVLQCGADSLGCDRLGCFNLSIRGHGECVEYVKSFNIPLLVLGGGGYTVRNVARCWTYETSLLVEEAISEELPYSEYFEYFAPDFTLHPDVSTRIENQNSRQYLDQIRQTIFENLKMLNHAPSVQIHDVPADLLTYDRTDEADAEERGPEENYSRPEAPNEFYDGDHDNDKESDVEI
# HDAC3, sequence (Q9Y618 395-489 partner limits assumed): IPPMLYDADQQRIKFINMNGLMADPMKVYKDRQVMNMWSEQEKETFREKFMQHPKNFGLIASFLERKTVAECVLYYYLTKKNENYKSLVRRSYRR
# HDAC2, sequence (Q92769 whole entry): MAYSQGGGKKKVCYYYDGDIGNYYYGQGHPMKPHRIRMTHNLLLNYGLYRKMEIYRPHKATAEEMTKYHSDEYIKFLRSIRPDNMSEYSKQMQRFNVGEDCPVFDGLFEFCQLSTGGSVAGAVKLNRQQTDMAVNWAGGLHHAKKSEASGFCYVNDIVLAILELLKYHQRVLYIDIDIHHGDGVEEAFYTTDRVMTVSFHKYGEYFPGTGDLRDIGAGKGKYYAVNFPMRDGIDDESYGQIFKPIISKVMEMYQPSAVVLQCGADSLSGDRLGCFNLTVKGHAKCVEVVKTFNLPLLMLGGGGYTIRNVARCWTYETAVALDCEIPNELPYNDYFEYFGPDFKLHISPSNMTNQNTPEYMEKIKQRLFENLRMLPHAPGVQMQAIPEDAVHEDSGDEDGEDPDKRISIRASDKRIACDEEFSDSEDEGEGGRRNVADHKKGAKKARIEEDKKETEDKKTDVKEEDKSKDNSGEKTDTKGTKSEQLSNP
# HDAC1, sequence (Q13547 whole entry): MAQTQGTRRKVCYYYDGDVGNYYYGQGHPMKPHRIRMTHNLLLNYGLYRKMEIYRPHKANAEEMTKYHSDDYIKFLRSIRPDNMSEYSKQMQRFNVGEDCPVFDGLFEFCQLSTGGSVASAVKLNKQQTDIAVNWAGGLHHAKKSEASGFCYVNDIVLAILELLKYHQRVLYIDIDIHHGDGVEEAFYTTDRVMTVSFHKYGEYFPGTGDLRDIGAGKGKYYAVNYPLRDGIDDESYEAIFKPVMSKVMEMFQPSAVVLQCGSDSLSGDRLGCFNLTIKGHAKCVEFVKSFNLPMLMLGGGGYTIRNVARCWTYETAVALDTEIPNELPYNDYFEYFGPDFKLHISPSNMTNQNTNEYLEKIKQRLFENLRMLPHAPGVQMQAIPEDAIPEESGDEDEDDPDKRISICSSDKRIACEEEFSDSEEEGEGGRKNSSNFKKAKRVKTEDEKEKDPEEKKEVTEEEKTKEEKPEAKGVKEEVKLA
smiles,measurement,setting,value
"O=C(CCCCCCC(=O)N[c-]1cccc1)NO.[Fe+2].c1cc[cH-]c1 [Compound 7, N^1-Hydroxy-N^8-ferrocenyloctanediamide]",IC50,[1],0.011 µM
same,IC50,[2],0.011 µM
same,IC50,[3],0.0008 µM
same,cell cycle arrest and cell death,[4],induced cell cycle arrest and cell death
same,IC50,[5],0.018 µM
